From PubChem BioAssay (NCI)
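GI50 is the concentration that inhibits growth by half. The concentration for full growth arrest is given as TGI.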

Columns and labels:
Experiment in all cases: NCI anticancer screen, dose series, 384-well format
786-0 renal = tested on: 786-0 renal
A498 renal = tested on: A498 renal
A549 NSCLC = tested on: A549 NSCLC
ACHN renal = tested on: ACHN renal
BT-549 breast = tested on: BT-549 breast
CAKI-1 renal = tested on: CAKI-1 renal
CCRF-CEM leukemia = tested on: CCRF-CEM leukemia
DU-145 prostate = tested on: DU-145 prostate
EKVX NSCLC = tested on: EKVX NSCLC
HCC-2998 colon = tested on: HCC-2998 colon
HCT-116 colon = tested on: HCT-116 colon
HCT-15 colon = tested on: HCT-15 colon
HL-60(TB) leukemia = tested on: HL-60(TB) leukemia
HOP-62 NSCLC = tested on: HOP-62 NSCLC
HOP-92 NSCLC = tested on: HOP-92 NSCLC
HS 578T breast = tested on: HS 578T breast
HT29 colon = tested on: HT29 colon
IGROV1 ovarian = tested on: IGROV1 ovarian
K-562 leukemia = tested on: K-562 leukemia
KM12 colon = tested on: KM12 colon
LOX IMVI melanoma = tested on: LOX IMVI melanoma
M14 melanoma = tested on: M14 melanoma
MALME-3M melanoma = tested on: MALME-3M melanoma
MCF7 breast = tested on: MCF7 breast
MDA-MB-231 breast = tested on: MDA-MB-231 breast
MDA-MB-435 melanoma = tested on: MDA-MB-435 melanoma
MDA-MB-468 breast = tested on: MDA-MB-468 breast
MOLT-4 leukemia = tested on: MOLT-4 leukemia
NCI-H226 lung = tested on: NCI-H226 lung
NCI-H23 lung = tested on: NCI-H23 lung
NCI-H322M lung = tested on: NCI-H322M lung
NCI-H460 NSCLC = tested on: NCI-H460 NSCLC
NCI-H522 lung = tested on: NCI-H522 lung
NCI/ADR-RES ovarian = tested on: NCI/ADR-RES ovarian
OVCAR-3 ovarian = tested on: OVCAR-3 ovarian
OVCAR-4 ovarian = tested on: OVCAR-4 ovarian
OVCAR-5 ovarian = tested on: OVCAR-5 ovarian
OVCAR-8 ovarian = tested on: OVCAR-8 ovarian
PC-3 prostate = tested on: PC-3 prostate
RPMI-8226 leukemia = tested on: RPMI-8226 leukemia
RXF 393 renal = tested on: RXF 393 renal
SF-268 CNS = tested on: SF-268 CNS
SF-295 CNS = tested on: SF-295 CNS
SF-539 CNS = tested on: SF-539 CNS
SK-MEL-28 melanoma = tested on: SK-MEL-28 melanoma
SK-MEL-5 melanoma = tested on: SK-MEL-5 melanoma
SK-OV-3 ovarian = tested on: SK-OV-3 ovarian
SN12C renal = tested on: SN12C renal
SNB-19 CNS = tested on: SNB-19 CNS
SNB-75 CNS = tested on: SNB-75 CNS
SW-620 colon = tested on: SW-620 colon
T-47D breast = tested on: T-47D breast
TK-10 renal = tested on: TK-10 renal
U251 glioblastoma = tested on: U251 glioblastoma
UACC-257 melanoma = tested on: UACC-257 melanoma
UACC-62 melanoma = tested on: UACC-62 melanoma
UO-31 renal = tested on: UO-31 renal

O=C(NCCN1CCOCC1)Nc1nc2ccc(Sc3nnc4ccc(-c5ccc(F)cc5)nn34)cc2s1
GI50 ([…]-0 renal): 1.61 µM
TGI (786-0 renal): 3.83 µM
GI50 (A498 renal): 6.7 µM
TGI (A498 renal): > 100 µM
GI50 (A549 NSCLC): > 100 µM
TGI (A549 NSCLC): > 100 µM
GI50 (ACHN renal): > 100 µM
TGI (ACHN renal): > 100 µM
GI50 (BT-549 breast): 2.85 µM
TGI (BT-549 breast): > 100 µM
GI50 (CAKI-1 renal): 22.6 µM
TGI (CAKI-1 renal): > 100 µM
GI50 (CCRF-CEM leukemia): 4.41 µM
TGI (CCRF-CEM leukemia): > 100 µM
GI50 (DU-145 prostate): > 100 µM
TGI (DU-145 prostate): > 100 µM
GI50 (EKVX NSCLC): 84 µM
TGI (EKVX NSCLC): > 100 µM
GI50 (HCC-2998 colon): 5.29 µM
TGI (HCC-2998 colon): 34.7 µM
GI50 (HCT-116 colon): 77 µM
TGI (HCT-116 colon): > 100 µM
GI50 (HCT-15 colon): 70.6 µM
TGI (HCT-15 colon): > 100 µM
GI50 (HL-60(TB) leukemia): 4.25 µM
TGI (HL-60(TB) leukemia): 8.46 µM
GI50 (HOP-62 NSCLC): 7.49 µM
TGI (HOP-62 NSCLC): > 100 µM
GI50 (HOP-92 NSCLC): 5.22 µM
TGI (HOP-92 NSCLC): > 100 µM
GI50 (HS 578T breast): 2.31 µM
TGI (HS 578T breast): 5.35 µM
GI50 (HT29 colon): 4.93 µM
TGI (HT29 colon): 53.3 µM
GI50 (IGROV1 ovarian): > 100 µM
TGI (IGROV1 ovarian): > 100 µM
GI50 (K-562 leukemia): 3.98 µM
TGI (K-562 leukemia): 21.2 µM
GI50 (KM12 colon): 0.452 µM
TGI (KM12 colon): > 100 µM
GI50 (LOX IMVI melanoma): 20.7 µM
TGI (LOX IMVI melanoma): > 100 µM
GI50 (M14 melanoma): > 100 µM
TGI (M14 melanoma): > 100 µM
GI50 (MALME-3M melanoma): 3.77 µM
TGI (MALME-3M melanoma): 13.3 µM
GI50 (MCF7 breast): 5.39 µM
TGI (MCF7 breast): > 100 µM
GI50 (MDA-MB-231 breast): 3.73 µM
TGI (MDA-MB-231 breast): > 100 µM
GI50 (MDA-MB-435 melanoma): > 100 µM
TGI (MDA-MB-435 melanoma): > 100 µM
GI50 (MDA-MB-468 breast): 2.93 µM
TGI (MDA-MB-468 breast): 8.45 µM
GI50 (MOLT-4 leukemia): 1.74 µM
TGI (MOLT-4 leukemia): 3.53 µM
GI50 (NCI-H226 lung): 3.04 µM
TGI (NCI-H226 lung): > 100 µM
GI50 (NCI-H23 lung): 13 µM
TGI (NCI-H23 lung): > 100 µM
GI50 (NCI-H322M lung): 42.9 µM
TGI (NCI-H322M lung): > 100 µM
GI50 (NCI-H460 NSCLC): 5 µM
TGI (NCI-H460 NSCLC): > 100 µM
GI50 (NCI-H522 lung): 17.7 µM
TGI (NCI-H522 lung): > 100 µM
GI50 (NCI/ADR-RES ovarian): > 100 µM
TGI (NCI/ADR-RES ovarian): > 100 µM
GI50 (OVCAR-3 ovarian): > 100 µM
TGI (OVCAR-3 ovarian): > 100 µM
GI50 (OVCAR-4 ovarian): > 100 µM
TGI (OVCAR-4 ovarian): > 100 µM
GI50 (OVCAR-5 ovarian): > 100 µM
TGI (OVCAR-5 ovarian): > 100 µM
GI50 (OVCAR-8 ovarian): > 100 µM
TGI (OVCAR-8 ovarian): > 100 µM
GI50 (PC-3 prostate): > 100 µM
TGI (PC-3 prostate): > 100 µM
GI50 (RPMI-8226 leukemia): 1.18 µM
TGI (RPMI-8226 leukemia): 2.58 µM
GI50 (RXF 393 renal): 0.606 µM
TGI (RXF 393 renal): 2.18 µM
GI50 (SF-268 CNS): 2.71 µM
TGI (SF-268 CNS): 7 µM
GI50 (SF-295 CNS): 2.34 µM
TGI (SF-295 CNS): 14.3 µM
GI50 (SF-539 CNS): 4.86 µM
TGI (SF-539 CNS): > 100 µM
GI50 (SK-MEL-28 melanoma): 3 µM
TGI (SK-MEL-28 melanoma): 7.53 µM
GI50 (SK-MEL-5 melanoma): 3.52 µM
TGI (SK-MEL-5 melanoma): 47 µM
GI50 (SK-OV-3 ovarian): > 100 µM
TGI (SK-OV-3 ovarian): > 100 µM
GI50 (SN12C renal): > 100 µM
TGI (SN12C renal): > 100 µM
GI50 (SNB-19 CNS): 5.14 µM
TGI (SNB-19 CNS): > 100 µM
GI50 (SNB-75 CNS): 3.2 µM
TGI (SNB-75 CNS): > 100 µM
GI50 (SW-620 colon): > 100 µM
TGI (SW-620 colon): > 100 µM
GI50 (T-47D breast): 3.1 µM
TGI (T-47D breast): 32.5 µM
GI50 (TK-10 renal): > 100 µM
TGI (TK-10 renal): > 100 µM
GI50 (U251 glioblastoma): 7.1 µM
TGI (U251 glioblastoma): 60.7 µM
GI50 (UACC-257 melanoma): 4.3 µM
TGI (UACC-257 melanoma): > 100 µM
GI50 (UACC-62 melanoma): 4.58 µM
TGI (UACC-62 melanoma): 42.3 µM
GI50 (UO-31 renal): > 100 µM
TGI (UO-31 renal): > 100 µM
